In patent publication US9617330B2, “Chemorepulsion of cells” (Celtaxsys, Inc., priority 2006, dated 2017):

What was measured:
B cells = test: High throughput transmigration assay (Example 9), chemorepulsion; type: cell-based, human; set-up: key: ratio of chemorepulsion (CR) to spontaneous migration (SM), CR/SM; conditions: mean of three donors at concentration of highest activity
Source text: (§1) An agent's repellent index is the ratio of chemorepulsion (CR) to spontaneous migration (SM) induced by the agent, i.e., [(CR)/(SM)]. […] For example, in calculating a RI for an agent, migratory responses including chemorepulsion (CR) and spontaneous migration (SM) may be measured over several decades or log scales of concentration. If, over any two consecutive measurements at concentrations which differ by at least 10 fold, the ratio of CR to SM at each of the two contiguous measurements is equal to or greater than 1.2, then the agent is considered a validated chemorepellent.
(§2) For primary human T cells, up to 80 ml of blood is drawn from a human donor in sodium heparin Vacutainer tubes (Becton-Dickinson). The blood (between 10 and 15 ml per tube) is then layered onto 30 ml of Lymphocyte Separation Medium (LSM) (Cellgro, Herndon, Va.) in a 50 ml conical centrifuge tube and centrifuged for 20 minutes at 2440×g in a swinging bucket rotor. After removing the majority of the plasma from the top of each tube, the peripheral blood mononucleocyte (PBMC) layer is removed and transferred to fresh 50 ml conical centrifuge tubes. The tubes are then filled to 50 ml with IMDM and centrifuged for 10 minutes at 500×g. All but approximately 5 ml of the supernatant is then removed and the pellet resuspended with 25 ml IMDM and the centrifugation repeated. After removal of the supernatant, the cells are resuspended and combined to one 50 ml tube (per subject) and brought to a total volume of 50 ml. The cells are then counted using a hemacytometer (Reichert). After centrifugation under the same conditions, the supernatant is removed and the cells processed using the appropriate Miltenyi Biotec (Auburn, Calif.) negative selection kit to enrich for the desired cell type according to manufacturers instructions. The resulting purified cells are then diluted to 50 ml with IMDM. After centrifugation at 500×g for 10 minutes, the supernatant is removed and the cells resuspended in 15 ml IMDM supplemented with 0.5% heat inactivated fetal calf serum (FCS) (ATCC, Manassas, Va.). After another centrifugation for 10 minutes at 500×g, the supernatant is again removed and the cells resuspended in 7 ml 0.5% FCS in IMDM (assay medium) and transferred to a 15 ml conical centrifuge tube. The cells are then quantitated using a hemacytometer. When enriching for monocytes, the concentration of cells is adjusted to 2×10^7 per ml by centrifugation and removal of the appropriate volume of assay medium. For all other cell types, the tube cap is replaced with one from a 25 cm^2 tissue culture flask (Corning) and the cells stored overnight in a humidified 37° C. incubator with 5% CO2. The concentration of the cells is adjusted as for monocytes just prior to transmigration assay of Example 9.
(§3) Migration away from a chemical or biological agent (chemorepulsion (CR)) was measured using ChemoTx plates (Neuroprobe). These plates contain a planar polycarbonate or polyester membrane that has been etched and perforated so that cells can move along the etched tracks and fall through perforation holes, enabling the cells to be collected and the number of migrated cells quantified (FIGS. 5-6). Several dilutions (normally 4 in 10-fold increments) are prepared of the agent of interest. For neutrophils, plates with 3 μm pore membranes are used, while for all other primary cell types, 5 μm pore membranes are used. Membranes may, or may not, be coated with polyvinylpyrrolidine (PVP) as a wetting agent.
(§4) For spontaneous migration controls and chemorepulsion (CR) assays, 31 μl of assay medium is pipetted into the lower well of the transmigration apparatus (FIGS. 5-6). For spontaneous migration controls and chemoattraction (CA) assays, 29 μl of assay medium is pipetted into upper chamber of the transmigration apparatus (FIG. 5). For CR, the upper well assay medium contains the agent or candidate chemorepellent. […]

Monocytes = test: as above; type: cell-based, human; conditions: mean of three donors at concentration of highest activity, range 0.00125-1.25 μM
Source text: as §1, §2
It is noted that this procedure may be used to isolate and/or purify monocytes. In the monocyte purification method, a further step is included for platelet removal via the use of CD61 microbeads also purchased from Miltenyi Biotec (Auburn, Calif.).
as §3
For spontaneous migration controls and chemorepulsion (CR) assays, 31 μl of assay medium is pipetted into the lower well of the transmigration apparatus (FIGS. 5-6). […]

CD4+ = test: as above; type: cell-based, human; conditions: mean of three donors at concentration of highest activity, range 0.00125-1.25 μM
Source text: as §1, §2, §3, §4

Neutrophils = test: as above; type: cell-based, human
CD8+ = test: as above; type: cell-based, human; conditions: mean of three donors at concentration of highest activity, range 0.00125-1.25 μM
Source text: as §1, §2, §3, §4

[1] = tested on: Human primary CD8+ lymphocytes; test: Trans-well migration assay (Example 3 method), unimodal fugetaxin test; type: cell-based; set-up: key: A “+” in the Table indicates a positive hit as a unimodal fugetaxin, as that term is defined herein, for that particular cell type; conditions: methods of Example 3
[2] = tested on: Human primary CD4+ lymphocytes; test: as above; type: cell-based; set-up: key: A “+” in the Table indicates a positive hit as a unimodal fugetaxin, as that term is defined herein, for that particular cell type; conditions: methods of Example 3
Monocyte = test: Trans-well migration assay (Example 1), net migratory response; conditions: Monocyte; net observed response
Procedure: Prior to beginning the assay 0.5% Fetal Calf Serum (FCS) in Iscove's Modified Dulbecco's Medium (IMDM) is prepared and stored on ice (Assay Medium). Migratory cells at a concentration of 2×10^7 cells/ml are suspended in Assay Medium. T-cells isolated from donor blood or buffy coats are allowed to rest overnight in Assay Medium at 37° C. in 5% CO2. Neutrophils, monocytes and B cells are utilized as soon as they are purified from donor blood or other source of human origin. Four serial (10×) dilutions of the ligand are then prepared in Assay Medium (normally 10 μg/ml to 0.01 μg/ml).
Plates are removed from the packaging, leaving the membrane behind and intact. The membrane is set aside. Into each well is pipetted 31 μl of solution. For media controls and fugetaxis (chemorepellent) samples, Assay Medium is used. For chemoattraction samples, the appropriate dilution of agent in assay medium is used.
Using a sterile needle, all small bubbles present in each well are popped and the membrane is carefully placed onto the plate, starting at one side and slowly lowering the other edge onto the plate.
Then 29 μl is pipetted into each circle imprinted on the polycarbonate or polyester membrane. For media controls and chemoattraction samples, Assay Medium is used. For fugetaxis (chemorepellent) samples, the appropriate dilution of ligand in assay medium is used.
To each 29 uL aliquot above is added 2 μl of cells (40,000 cells). It is important to ensure that before beginning the cells are well suspended and that they are mixed. This mixing can be accomplished by agitating the tube between each addition.
The plate is then covered with the supplied lid and incubated 1-3 hours in a humidified incubator at 37° C. in 5% CO2. Following the incubation period, the liquid from the top of the plate is removed with a tissue or similar blotting material (e.g. a Kimwipe). The membrane is carefully removed from the top of the plate and discarded. […] Using a multichannel pipettor, each well of the microplate is rinsed with 25 μl Phosphate Buffered Saline (Mediatech #21-040-CV) and transferred to the same wells in the white microplate. Using a multichannel pipettor, 50 μl CellTiter-Glo Luminescent Cell Viability Assay (Promega #G7572) is added to each well and mixed.
The plate is read using the Perkin Elmer Victor^3V plate reader using the Large Aperture Luminescence setting at 8 mm height above the plate with a dwell time of 1 s to quantify the number of migrated cells.
The results reported reflect the net observed migratory response of the cells to the ligand and are not based on the definition of unimodal fugetaxins.

[3] = tested on: Human primary neutrophils; test: Trans-well migration assay (Example 3 method), unimodal fugetaxin test; type: cell-based; set-up: key to Unimodal fugetaxin hit, Neutrophils: A “+” in the Table indicates a positive hit as a unimodal fugetaxin, as that term is defined herein, for that particular cell type; conditions: for Unimodal fugetaxin hit, Neutrophils: human neutrophils, methods of Example 3
T lymphocytes = test: High throughput transmigration assay (Example 9), chemorepulsion; type: cell-based, human; conditions: one donor, triplicate, ± SD
Source text: as §1, §2, §3, §4

[4] = tested on: Eo-HL60 (HL-60 clone 15 differentiated to eosinophil-like phenotype); test: Trans-well migration assay (Example 1), net migratory response; type: cell-based, human; conditions: net observed response
[5] = Neutrophils, mean of three donors at concentration of highest activity, range 0.00125-1.25 μM

Molecule | Repellent Index (B cells; range 0.00125-1.25 μM) | Repellent Index (Monocytes) | Repellent Index (CD4+) | Repellent Index (Neutrophils; [5]) | Unimodal fugetaxin hit, CD8+ [1] | Unimodal fugetaxin hit, CD4+ [2] | Unimodal fugetaxin hit, Neutrophils [3] | also measured
CCL2: chemokine | 1.5 | 1.7 | – | – | – | – | – | –
Elafin: elastase inhibitor (AQEPVKGPVSTKPGSCPIILIRCAMLNPPNRCLKDTDCPGIKKCCEGSCGMACFVPQ; UniProt P19957 61-117, looked up) | – | – | 1.3 | 2.0 | – | – | – | Repellent Index (Neutrophils; neutrophils, 0.00125 μM, one donor, triplicate, ± SD): 1.33 ± 0.28; Repellent Index (Neutrophils; neutrophils, 0.0125 μM, one donor, triplicate, ± SD): 1.31 ± 0.29; Repellent Index (Neutrophils; neutrophils, 0.125 μM, one donor, triplicate, ± SD): 1.48 ± 0.22; Repellent Index (Neutrophils; neutrophils, 1.25 μM, one donor, triplicate, ± SD): 2.42 ± 0.52
Galectin-3: carbohydrate binding protein (galectin), full-length, purchased; accession P17931/BAA22164/NP_002297 | – | – | – | 1.6 | + | + | + | Repellent Index (CD8+): 1.3; Migratory Response (Monocyte): chemorepulsion; chemotactic (chemoattractant) versus fugetactic (chemorepellent) response of neutrophils ([3]; neutrophils, 1 hour, FIGS. 3 and 4, at 10 uM where stated): almost three times as fugetactic (chemorepellent) as chemotactic (chemoattractant)
HSP70: heat shock protein; accession AAA02807 | – | – | 4.9 | 8.8 | – | + | + | Repellent Index (CD8+): 11.6; Repellent Index (T lymphocytes; 0.00125 μM): 0.96 ± 0.13; Repellent Index (T lymphocytes; 0.0125 μM): 1.15 ± 0.24; Repellent Index (T lymphocytes; 0.125 μM): 1.65 ± 0.35; Repellent Index (T lymphocytes; 1.25 μM): 14.56 ± 0.61; Migratory Response [4]: chemorepulsion
Pam3CSK4 [reference compound] | – | – | – | 4.9 | + | + | + | Migratory Response [4]: chemorepulsion
S. typhimurium Flagellin: TLR ligand; accession M11332 (protein, UniProt P06179 2-495, looked up) Flagellin: AQVINTNSLSLLTQNNLNKSQSALGTAIERLSSGLRINSAKDDAAGQAIANRFTANIKGLTQASRNANDGISIAQTTEGALNEINNNLQRVRELAVQSANSTNSQSDLDSIQAEITQRLNEIDRVSGQTQFNGVKVLAQDNTLTIQVGANDGETIDIDLKQINSQTLGLDTLNVQQKYKVSDTAATVTGYADTTIALDNSTFKASATGLGGTDQKIDGDLKFDDTTGKYYAKVTVTGGTGKDGYYEVSVDKTNGEVTLAGGATSPLTGGLPATATEDVKNVQVANADLTEAKAALTAAGVTGTASVVKMSYTDNNGKTIDGGLAVKVGDDYYSATQNKDGSISINTTKYTADDGTSKTALNKLGGADGKTEVVSIGGKTYAASKAEGHNFKAQPDLAEAAATTTENPLQKIDAALAQVDTLRSDLGAVQNRFNSAITNLGNTVNNLTSARSRIEDSDYATEVSNMSRAQILQQAGTSVLAQANQVPQNVLSLLR | – | – | – | – | + | + | + | Repellent Index (B cells; range 0.01-10 μg/ml): 1.7; Migratory Response (Monocyte): chemorepulsion; Repellent Index (Neutrophils; Neutrophils, mean of three donors at concentration of highest activity, range 0.01-10 μg/ml): 5.5
CCL15: chemokine (protein, UniProt Q16663 22-113, looked up) C-C motif chemokine 15: QFTNDAETELMMSKLPLENPVVLNSFHFAADCCTSYISQSIPCSLMKSYFETSSECSKPGVIFLTKKGRQVCAKPSGPGVQDCMKKLKPYSI | – | 1.4 | – | – | – | – | – | –
CCL8: chemokine (protein, UniProt P80075 24-99, looked up) C-C motif chemokine 8: QPDSVSIPITCCFNVINRKIPIQRLESYTRITNIQCPKEAVIFKTKRGKEVCADPKERWVRDSMKHLDQIFQNLKP | 2.6 | 2.3 | – | – | – | – | – | –
CCL19: chemokine (protein, UniProt Q99731 22-98, looked up) C-C motif chemokine 19: GTNDAEDCCLSVTQKPIPGYIVRNFHYLLIKDGCRVPAVVFTTLRGRQLCAPPDQPWVERIIQRLQRTSAKMKRRSS | 2.0 | – | 1.7 | 1.5 | – | – | – | –
CXCL7: chemokine (protein, UniProt P02775 35-128, looked up) Platelet basic protein: SSTKGQTKRNLAKGKEESLDSDLYAELRCMCIKTTSGIHPKNIQSLEVIGKGTHCNQVEVIATLKDGRKICLDPDAPRIKKIVQKKLAGDESAD | – | 1.4 | – | 3.9 | – | – | – | –
